Laboratory results from patent US12509459B2, “Inhibitors of NLRP3 inflammasome” (BioAge Labs, Inc., priority 2024, dated 2025).

Target: NLRP3 (Homo sapiens, UniProt Q96P20)
Experiment: THP-1 cell-based NLRP3 activation assay
Set-up: endogenous in cells; host or cells: THP-1 cells (PMA-differentiated, LPS-primed, nigericin-stimulated)
Settings: PMA-differentiated THP-1 cells, LPS 100 ng/mL then 10 μM nigericin
Experimental: THP-1 cells are cultured in complete media (CM) until they reach logarithmic growth and achieve a viability >90%. CM is composed of RPMI-1640 (+Glutamax)/10% fetal bovine serum/55 μM β-mercaptoethanol/pen/strep. Cells are spun down and resuspended to 1,000,000 cells/mL in CM containing either 20 nM or 500 nM PMA. 150,000 cells (150 μL) are then added to each well of a 96-well TC plate and incubated for either 24 hr or 3 hr, respectively, in a standard cell culture incubator (37° C.; 5% CO2). After this incubation, the plate is tilted and media carefully removed. 200 μL of CM containing 100 ng/mL LPS is then added to the wells and the cells incubated an additional 3 hrs. The media is again removed and replaced with Opti-Mem medium containing pre-determined dilutions of test compounds in replicate wells. After a 30 min incubation, 10 μM nigericin (final concentration) in Opti-Mem medium with the corresponding concentration of compound is added to the wells for an additional 1 hr. Positive control wells contain 10 μM nigericin in Opti-Mem in the absence of test compound, while negative control wells contain Opti-Mem only. […] Once supernatants are removed, the relative viability of adherent cells in the 96-well TC plate are determined using a CellTiter-Glo® luminescent cell viability assay (Promega).

Chain of NLRP3 (Q96P20 whole entry): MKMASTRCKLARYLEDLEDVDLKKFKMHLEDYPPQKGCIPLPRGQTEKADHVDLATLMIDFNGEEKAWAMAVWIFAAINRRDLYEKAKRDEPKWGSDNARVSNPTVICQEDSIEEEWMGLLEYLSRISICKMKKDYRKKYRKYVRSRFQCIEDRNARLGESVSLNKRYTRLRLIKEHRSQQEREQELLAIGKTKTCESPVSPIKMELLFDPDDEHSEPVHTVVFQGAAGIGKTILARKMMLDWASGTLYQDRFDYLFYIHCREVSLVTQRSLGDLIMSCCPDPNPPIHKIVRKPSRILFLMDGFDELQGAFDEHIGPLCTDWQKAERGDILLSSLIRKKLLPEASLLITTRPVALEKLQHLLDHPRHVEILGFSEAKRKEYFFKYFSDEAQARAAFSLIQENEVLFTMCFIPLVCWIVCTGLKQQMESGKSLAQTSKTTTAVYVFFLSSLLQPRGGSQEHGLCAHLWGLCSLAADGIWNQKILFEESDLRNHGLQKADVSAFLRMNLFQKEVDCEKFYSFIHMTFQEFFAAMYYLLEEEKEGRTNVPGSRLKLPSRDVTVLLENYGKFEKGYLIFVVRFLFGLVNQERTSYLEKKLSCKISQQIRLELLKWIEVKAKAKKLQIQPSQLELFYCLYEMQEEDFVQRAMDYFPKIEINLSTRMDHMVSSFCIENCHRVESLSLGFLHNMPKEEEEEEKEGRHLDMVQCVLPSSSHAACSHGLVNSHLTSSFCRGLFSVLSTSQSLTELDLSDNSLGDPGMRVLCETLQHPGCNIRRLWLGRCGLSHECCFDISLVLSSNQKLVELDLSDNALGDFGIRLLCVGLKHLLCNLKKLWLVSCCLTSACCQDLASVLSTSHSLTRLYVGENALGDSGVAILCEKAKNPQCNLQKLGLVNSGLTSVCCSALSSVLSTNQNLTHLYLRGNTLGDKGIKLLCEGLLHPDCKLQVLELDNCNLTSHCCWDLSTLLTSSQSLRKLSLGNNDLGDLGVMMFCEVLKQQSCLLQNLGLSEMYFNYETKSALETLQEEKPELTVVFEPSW

CCOc1cc(C(=O)N(C)[C@H](c2cncc3cn[nH]c23)C2CN(C)C2)ccc1-c1ccccc1 [Compound 133] gave an IC50 of under 100 nM.

With CCOc1cc(C(=O)N(C)[C@H](c2cncc3cn[nH]c23)C2CN(CC)C2)ccc1-c1cccc(F)c1 [Compound 174] the IC50 was under 100 nM.

Molecule CCOc1cc(C(=O)N(C)C(CCN(C)CC)c2cncc3cn[nH]c23)ccc1-c1cccc(F)c1 (stereo not shown) [Compound 066] has an IC50 of under 100 nM.

CCOc1cc(C(=O)N(C)[C@@H](CN2CCCC2)c2cccc3cn[nH]c23)ccc1-c1cccc(F)c1 [Compound 223] showed an IC50 of under 100 nM.

For CCOc1cc(C(=O)N(C)[C@H](CCN2CC(F)(F)C2)c2cncc3cn[nH]c23)ccc1-c1cccc(F)c1 [Compound 101], the IC50 was under 100 nM.

Molecule CCOc1cc(C(=O)N(CCN2C[C@@H](F)[C@H](F)C2)Cc2cncc3cn[nH]c23)ccc1-c1cccc(F)c1 [Compound 107] has an IC50 of under 100 nM.

CCOc1cc(C(=O)N(C)[C@H](CCN(C)C)c2cnc(CO)c3cn[nH]c23)ccc1-c1cccc(F)c1 [Compound 099] gave an IC50 of under 100 nM.

CCOc1cc(C(=O)N(C)[C@H](CCNC)c2cncc3cn[nH]c23)ccc1-c1cccc(C#N)c1 [Compound 232] was tested, and the IC50 was under 100 nM.

CCOc1cc(C(=O)N(C)[C@@H](CCN(C)C)c2ccc(C)c3cn[nH]c23)ccc1-c1ccccc1 [Compound 205] was tested, and the IC50 was under 100 nM.

CCOc1cc(C(=O)N(C)[C@H](CCN(C)C)c2cccc3cn[nH]c23)ccc1-c1cccc(Cl)c1 [Compound 213] showed an IC50 of under 100 nM.

Work on CCOc1cc(C(=O)N(C)[C@H](CCN(CC)CC)c2cccc3cn[nH]c23)ccc1-c1cccc(F)c1 [Compound 215] yielded an IC50 of under 100 nM.

CCOc1cc(C(=O)N(Cc2cncc3cn[nH]c23)[C@H]2C[C@@H](N(C)C)C2)ccc1-c1cccc(C#N)c1 [Compound 290] gave an IC50 of under 100 nM.

Molecule CCOc1cc(C(=O)N(Cc2cncc3cn[nH]c23)[C@H]2C[C@@H](CN)C2)ccc1-c1cccc(F)c1 [Compound 248] has an IC50 of under 100 nM.

With CCOc1cc(C(=O)N(C)[C@H](CCOC)c2cncc3cn[nH]c23)ccc1-c1cccc(Cl)c1 [Compound 016] the IC50 was over 15000 nM.

CCOc1cc(C(=O)N(Cc2cnc(C)c3cn[nH]c23)CC(C)(C)O)ccc1-c1cccc(F)c1 [Compound 053] was tested, and the IC50 was under 100 nM.

Molecule CCOc1cc(C(=O)N(C)[C@H](CCNC(=O)CC)c2cncc3cn[nH]c23)ccc1-c1cccc(F)c1 [Compound 147] has an IC50 of under 100 nM.

CN(C)CC[C@H](c1cccc2cn[nH]c12)N(C)C(=O)c1ccc(-c2cccc(F)c2)c(OC2CC2)c1 [Compound 198] showed an IC50 of under 100 nM.

With CCOc1cc(C(=O)N(C)[C@H](CCN(C)CCO)c2cncc3cn[nH]c23)ccc1-c1cccc(F)c1 [Compound 262] the IC50 was under 100 nM.

CCOc1cc(C(=O)N(C)C(CN2CCC(O)C2)c2cncc3cn[nH]c23)ccc1-c1cccc(F)c1 (stereo not shown) [Compound 247] gave an IC50 of under 100 nM.

For CN(C(=O)c1ccc(-c2cccc(Cl)c2)c(OC2CC2)c1)[C@H](CCN1CCC1)c1cncc2cn[nH]c12 [Compound 281], the IC50 was 1000 to 15000 nM.

Work on CCOc1cc(C(=O)N(C)[C@H](CCN(C)CCCF)c2cncc3cn[nH]c23)ccc1-c1cccc(F)c1 [Compound 137] yielded an IC50 of under 100 nM.

CCOc1cc(C(=O)N(CCN2CCCC(F)(F)C2)Cc2cncc3cn[nH]c23)ccc1-c1cccc(F)c1 [Compound 113] was tested, and the IC50 was under 100 nM.

Molecule CCOc1cc(C(=O)N(Cc2cncc3cn[nH]c23)[C@H]2C[C@@H](N(C)C)C2)ccc1-c1ccccc1 [Compound 245] has an IC50 of under 100 nM.

Work on CCOc1cc(C(=O)N(C)C(CN(C)C)c2cncc3cn[nH]c23)ccc1-c1ccccc1 (stereo not shown) [Compound 226] yielded an IC50 of 100 to 500 nM.

CCOc1cc(C(=O)N(CC(C)(C)O)C(C)c2cnc(C)c3cn[nH]c23)ccc1-c1cccc(F)c1 (stereo not shown) [Compound 062] showed an IC50 of under 100 nM.

In the case of CCOc1cc(C(=O)N(C)[C@H](CCN(C)CC(F)F)c2cncc3cn[nH]c23)ccc1-c1cccc(F)c1 [Compound 094], the IC50 is reported as under 100 nM.

CCOc1cc(C(=O)N(C)[C@@H](CN2CCCC2)c2cncc3cn[nH]c23)ccc1-c1cccc(F)c1 [Compound 130] showed an IC50 of under 100 nM.

In the case of CCOc1cc(C(=O)N(CCO)Cc2cnc(C)c3cn[nH]c23)ccc1-c1cccc(F)c1 [Compound 051], the IC50 is reported as under 100 nM.

CCOc1cc(C(=O)N(Cc2ccc(C)c3cn[nH]c23)[C@H]2C[C@@H](NC)C2)ccc1-c1cccc(F)c1 [Compound 266] gave an IC50 of under 100 nM.

In the case of CCOc1cc(C(=O)N(C)[C@H](CCN(C)CCF)c2cncc3cn[nH]c23)ccc1-c1cccc(Cl)c1 [Compound 067], the IC50 is reported as under 100 nM.

CCOc1cc(C(=O)N(C)[C@@H](c2cncc3cn[nH]c23)[C@@H]2CCN(C)C2)ccc1-c1cccc(F)c1 [Compound 081] was tested, and the IC50 was under 100 nM.

For CCOc1cc(C(=O)N(C[C@H](C)O)[C@H](C)c2cnc(C)c3cn[nH]c23)ccc1-c1cccc(F)c1 [Compound 059], the IC50 was 1000 to 15000 nM.

CCOc1cc(C(=O)N(Cc2cncc3cn[nH]c23)[C@H]2CC[C@@H]2N(C)C)ccc1-c1cccc(Cl)c1 [Compound 288] showed an IC50 of 100 to 500 nM.

CCOc1cc(C(=O)N(C)[C@H](CCN(C)C)c2cccc3cn[nH]c23)ccc1-c1cccc(C)c1 [Compound 195] gave an IC50 of under 100 nM.

In the case of CCOc1cc(C(=O)N(C)[C@@H](CN(C)C)c2cncc3cn[nH]c23)ccc1C(C)C [Compound 209], the IC50 is reported as under 100 nM.

CCOc1cc(C(=O)N(C)C(c2cncc3cn[nH]c23)C2C[N+](C)([O-])C2)ccc1-c1cccc(F)c1 (stereo not shown) [Compound 192] was tested, and the IC50 was 100 to 500 nM.

In the case of CCOc1cc(C(=O)N(CCN2CCCC(F)C2)Cc2cncc3cn[nH]c23)ccc1-c1cccc(F)c1 (stereo not shown) [Compound 114], the IC50 is reported as under 100 nM.

With CCOc1cc(C(=O)N(Cc2cncc3cn[nH]c23)[C@H]2C[C@@H](N)C2)ccc1-c1cccc(C#N)c1 [Compound 289] the IC50 was under 100 nM.

Molecule CCOc1cc(C(=O)N(Cc2cnc(C)c3cn[nH]c23)[C@H]2C[C@@H](NC)C2)ccc1-c1cccc(Cl)c1 [Compound 277] has an IC50 of under 100 nM.

In the case of CCOc1cc(C(=O)N(C)[C@@H](c2cnc(C)c3cn[nH]c23)C2CN(C)C2)ccc1-c1cccc(F)c1 [Compound 071], the IC50 is reported as under 100 nM.

CCOc1cc(C(=O)N(C)[C@H](CCN(C)C)c2cccc3cn[nH]c23)ccc1-c1cc(F)cc(F)c1 [Compound 219] was tested, and the IC50 was under 100 nM.

For CCOc1cc(C(=O)N(C)[C@H](CCNC)c2cncc3cn[nH]c23)ccc1-c1cccc(F)c1 [Compound 039], the IC50 was 1000 to 15000 nM.

In the case of CCOc1cc(C(=O)N(C)[C@@H](c2cncc3cn[nH]c23)[C@H]2CCN(C)C2)ccc1-c1ccccc1 [Compound 153], the IC50 is reported as under 100 nM.

With CCOc1cc(C(=O)N(C)[C@H](c2cncc3cn[nH]c23)[C@H]2CCNC2)ccc1-c1cccc(F)c1 (single isomer, unassigned) [Compound 085] the IC50 was under 100 nM.

With CCOc1cc(C(=O)N(Cc2cncc3cn[nH]c23)[C@H]2CC[C@H]2N)ccc1-c1cccc(F)c1 [Compound 300] the IC50 was 100 to 500 nM.

CCOc1cc(C(=O)N(C)[C@@H](CN(C)C)c2cccc3cn[nH]c23)ccc1-c1cccc(F)c1 [Compound 257] showed an IC50 of under 100 nM.

For CCOc1cc(C(=O)N(C)[C@H](COC)c2cncc3cn[nH]c23)ccc1-c1cccc(Cl)c1 [Compound 014], the IC50 was under 100 nM.

CCOc1cc(C(=O)N(Cc2cncc3cn[nH]c23)C2CC(NC)C2)ccc1-c1ccccc1 (stereo not shown) [Compound 237] gave an IC50 of 1000 to 15000 nM.

Molecule CCOc1cccc(C(=O)N(C)[C@H](CCN(C)C)c2cnc(CO)c3cn[nH]c23)c1 [Compound 180] has an IC50 of 500 to 1000 nM.

CCOc1cc(C(=O)N(C)[C@@H](CCN(C)C)c2cncc3cn[nH]c23)ccc1-c1cccc(F)c1 [Compound 162] showed an IC50 of under 100 nM.

With CN(C)CC[C@H](c1cncc2cn[nH]c12)N(C)C(=O)c1ccc(-c2cccc(Cl)c2)c(OC2CC2)c1 [Compound 102] the IC50 was under 100 nM.

Molecule CCOc1cc(C(=O)N(C)[C@H](CO)c2cncc3cn[nH]c23)ccc1-c1cccc(F)c1 [Compound 001] has an IC50 of under 100 nM.

Molecule CCOc1cc(C(=O)N(C)[C@@H](c2cncc3cn[nH]c23)C2CNC2)ccc1-c1cccc(Cl)c1 [Compound 181] has an IC50 of under 100 nM.

Work on CCOc1cc(C(=O)N(C)[C@@H](c2cncc3cn[nH]c23)C2CN(C)C2)ccc1-c1cccc(F)c1 [Compound 079] yielded an IC50 of under 100 nM.

CCOc1cc(C(=O)N(Cc2cncc3cn[nH]c23)[C@H]2CC[C@H]2N)ccc1-c1cccc(Cl)c1 [Compound 295] showed an IC50 of 100 to 500 nM.

CCOc1cc(C(=O)N(C)[C@H](CO)c2cnc(C)c3cn[nH]c23)ccc1-c1cccc(F)c1 [Compound 017] showed an IC50 of under 100 nM.

CN(C)CC[C@H](c1cccc2cn[nH]c12)N(C)C(=O)c1ccc(-c2ccccc2)c(OC2CC2)c1 [Compound 199] showed an IC50 of under 100 nM.

For CN(C(=O)c1ccc(-c2cccc(Cl)c2)c(OC2CC2)c1)[C@H](CO)c1cncc2cn[nH]c12 [Compound 006, (S)-3′-chloro-2-cyclopropoxy-N-(2-hydroxy-1-(1H-pyrazolo[4,3-c]pyridin-7-yl)ethyl)-N-methyl-[1,1′-biphenyl]-4-carboxamide], the IC50 was under 100 nM.

CCOc1cc(C(=O)N(C)[C@H](CCN(C)C)c2cncc3cn[nH]c23)ccc1-c1cccc(Cl)c1 [Compound 098] showed an IC50 of under 100 nM.

Molecule CCOc1cc(C(=O)N(CCN2CCCCC2)Cc2cncc3cn[nH]c23)ccc1-c1ccccc1 [Compound 112] has an IC50 of under 100 nM.

CCOc1cc(C(=O)N(CCN2C[C@H](F)C[C@H](F)C2)Cc2cncc3cn[nH]c23)ccc1-c1cccc(F)c1 [Compound 106] gave an IC50 of under 100 nM.
